This experiment addresses GorB (BP1729) (Bordetella pertussis, UniProt Q7VXM2). The experiment in a line: NADPH oxidation followed at […] nm. It counts as biochemical. The note with it: 0.3 mM NADPH, 8 mM GSH; GSSG generated in situ from GSH by H2O2 (0.1-2 mM); 0.1 M sodium/potassium phosphate pH 7.6, 25 °C.

GorB (BP1729), sequence (Q7VXM2 entry or part of it): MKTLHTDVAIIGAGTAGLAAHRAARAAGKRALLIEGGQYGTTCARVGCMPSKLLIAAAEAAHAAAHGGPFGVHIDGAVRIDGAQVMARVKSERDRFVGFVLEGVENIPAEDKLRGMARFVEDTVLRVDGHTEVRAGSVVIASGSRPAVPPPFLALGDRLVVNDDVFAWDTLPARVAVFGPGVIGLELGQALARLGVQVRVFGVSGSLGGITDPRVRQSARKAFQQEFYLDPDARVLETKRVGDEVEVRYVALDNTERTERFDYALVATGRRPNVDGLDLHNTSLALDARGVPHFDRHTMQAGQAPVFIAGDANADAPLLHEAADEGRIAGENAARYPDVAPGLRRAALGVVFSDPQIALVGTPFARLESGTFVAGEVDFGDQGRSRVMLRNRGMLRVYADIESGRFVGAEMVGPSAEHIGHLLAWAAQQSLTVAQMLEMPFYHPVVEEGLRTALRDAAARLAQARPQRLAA

For the compound `NC(=O)C1=CN([C@@H]2O[C@H](COP(=O)(O)OP(=O)(O)OC[C@H]3O[C@@H](n4cnc5c(N)ncnc54)[C@H](OP(=O)(O)O)[C@@H]3O)[C@@H](O)[C@H]2O)C=CC1` [NADPH], the “NADPH oxidation followed at 340 nm” value is “Oxidation of NADPH by recombinant GorB over time”.

(Values after paper PMC7794356, “Streamlined copper defenses make Bordetella pertussis reliant on custom-made operon” (Communications Biology, 2021).)
